The values that follow come from patent US9611246B2, “Compositions, apparatus, systems, and methods for resolving electronic excited states” (HALLSTAR INNOVATIONS CORP., priority 2012, dated 2017).

Data set [1] is described as follows: Singlet oxygen phosphorescence from photoexcited protoporphyrin IX in air saturated DMSO-d6. The format is physicochemical. An excerpt: Singlet oxygen was generated by pulsed laser excitation in the UV (355 nm) by protoporphyrin IX. Protoporphyrin IX was selected on the basis of its high extinction coefficient (FIG. 2). The solvent DMSO-d6 was selected because of good solubility of the sensitizer and stabilizers. The deuterated form of DMSO was used because of the longer singlet oxygen lifetime in deuterated solvents compared to solvents containing hydrogen. FIG. 10 and FIG. 11 show kinetic traces of singlet oxygen phosphorescence generated from photoexcitation of protoporphyrin IX. […] Excited state quenching of the protoporphyrin IX by the two compounds is unlikely to occur at these low stabilizer concentrations (μM).
In the previous experiments, singlet oxygen was generated by pulsed laser excitation in the UV spectral region (355 nm) of protoporphyrory IX. […] This was explained by a simple optical screening mechanism, where the compound of Formula I(a)(1) and alkoxy crylene absorb the UV light.
In this example, laser excitation was performed with visible light at 532 nm, where the compound of Formula I(a)(1) and the alkoxy crylene compound are transparent. […] The absence of singlet oxygen suppression with 532 nm excitation supports the optical screening mechanism with 355 nm excitation. […]

Data set [2] in a line: Singlet oxygen generation by stabilizers upon direct UV photolysis at 355 nm. The format is physicochemical. As to conditions: air saturated CCl4, benzophenone as reference. Here is the method:
To investigate to what extent the stabilizers can generate singlet oxygen upon direct UV photolysis, singlet oxygen phosphorescence measurements were performed under photolysis at 355 nm. For these experiments CCl4 was selected as solvent, because of the long lifetime of singlet oxygen in this solvent, which makes these experiments easier to perform. Weak singlet oxygen signals were observed upon photolysis at 355 nm (FIG. 12). Using benzophenone as reference (quantum yield of singlet oxygen generation: 0.35) the low quantum yields of singlet oxygen generation were estimated: compound of Formula I(a)(1): 0.015 and alkoxy crylene: ˜0.001.
To ensure that the observed weak singlet oxygen signals truly originated from the two compounds and not from possible impurities in the sample or solvent, singlet oxygen phosphorescence excitation spectra were recorded.

The subject of a further data set is HaCat cells. Nature of the data set: Cell viability of ALA-treated HaCat cells after red light irradiation. As to conditions: 1 mM. The format is cell-based, human. Here is the method:
HaCat cells were seeded in 96-well plates and grown to confluence. Confluent cells were treated with 8 mM ALA for 2 hours. Cells then received 1 mM of Formula II(a)(1), II(b)(1)+II(c)(1), or II(bk). Following a one-hour incubation, cells were irradiated for 3 minutes and immediately washed with naïve cell culture media once. Additional cell culture media was added and the cells were cultured for 24 hours. A cell viabilty agent was added to each well and incubated for 2 hours. Cell viability was analyzed at the conclusion of this incubation by measuring the fluorescence intensity (excitation/emission 560/590) of each well. Results shown in FIG. 26 indicate that control cells (without conjugated fused polycyclic compound treatment) were almost completely killed by phototoxic ROS induced by ALA and light irradiation. Cell viability (cell metabolic activity) of light irradiated cells (without conjugated fused polycyclic) was only […] of normal cell control (no treatment). […] About 50% of Formula II(a)(1) treated cells survived, while cells without conjugated fused polycyclic compound exposure and cells treated with II(bk) were almost 100% dead. […] The Formula II(a)(1) was also observed to protect cells from light irradiation induced injury (relative cell viability 61%). […]

Data set [3] concerns visible light-induced free radicals in pig skin. Nature of the data set: Visible light-induced free radicals in ALA-treated pig skin by Electron Spin Resonance. The note with it: for Free Radicals (%): relative to 0 mM; for Free Radicals (a.u.): topical, ALA-treated pig skin. Here is the method: A conjugated fused tricycle compound according to Formula II(a)(1) reduced visible light-induced free radicals in skin by up to 89% and did so in a dose-dependent manner (FIG. 21). The study was conducted using pig skin, which is recognized for its similarity to human skin. Topical application of aminolevulinic acid (ALA) induced the skin to over-produce the endogenous photosensitizer Protoporphyrin IX (PPIX). Solutions of Formula II(a)(1) at different concentrations were then topically applied to the ALA treated skin after which it was exposed to bright green light. The resulting free radical content of the skin was then measured by Electron Spin Resonance (ESR). Studies conducted in solution have shown that Formula II(a)(1) suppresses singlet oxygen production by PPIX. […] The mechanisms of action of Formula II(a)(1) and Tocopherol are different: the former prevents free radicals from forming; the latter scavenges free radicals after they appear.

The nature of data set [4]: Singlet oxygen phosphorescence from protoporphyrin IX dimethyl ester in air saturated CDCl3, 532 nm. The format is physicochemical. The note with it: MePPIX 25 μM. The method, then:
Singlet oxygen phosphorescence experiments were performed to investigate if the large differences in triplet quenching rate constants have an impact on the observed singlet oxygen yields. The dimethyl ester derivative of PPIX (MePPIX, Formula IV(c)) was selected as sensitizer, because of better solubility in a solvent with long singlet oxygen lifetime (CDCl3).
The excited state properties of protoporphyrin IX should not be effected by the methyl ester functionality. Air saturated CDCl3 of MePPIX were excited with a pulsed Nd-YAG laser with visible light at 532 nm, where the stabilizers are mostly transparent. […] The lack of singlet oxygen suppression is consistent with the lack of observable quenching of singlet or triplet excited states of PPIX by alkoxy crylene.

Data set [5] is described as follows: Solubility in DMSO, PBS buffer and cell culture media. The format is physicochemical. Here is the method:
All Conjugated fused polycyclic compounds tested (including Formulas II(a)(1), II(b)(1) and II(c)(1), and II(bk)) are highly soluble in DMSO, but poorly soluble in PBS buffer and cell culture medium. Formulas II(b)(1) and II(c)(1) can remain soluble in PBS buffer or cell culture medium if its concentration is less 0.2 mM. At concentrations higher than 0.2 mM, the solution begins to cloud and become emulsion like. This emulsion is able to remain stable for as long as 8 hours. Formula II(bk) is less soluble in PBS buffer and cell culture medium. It was only observed to dissolve in PBS at concentrations of 0.1 mM or less. Similar to Formulas II(b)(1) and II(c)(1), increasing Formula II(bk) concentration above 0.1 mM results in a cloudy emulsion like solution. But this cloudy solution is fairly stable and can be kept for more than 3 days.

Molecules are shown by their SMILES.

As for `COC(=O)C(C#N)=C1c2ccccc2-c2ccccc21` [Formula I(a)(1)], in data set [1] (355 nm excitation, 250 μM stabilizer), the singlet oxygen phosphorescence entry is on record as “significantly reduced singlet oxygen phosphorescence”. The “concentration above which the amount of generated singlet oxygen was reduced” value in data set [1] (532 nm excitation) is on record as “above 3 mM”. In data set [2], the “quantum yield of singlet oxygen generation” value is reported as 0.015.
With `COC(=O)C(C#N)=C1c2ccccc2C(=O)c2ccccc21` [Formula II(a)(1)], in the data set on HaCat cells (8 mM ALA, 3 minutes irradiation, 24 hours culture, vs normal cell control), the relative cell viability is listed as 61%. Further, the “treated cells that survived” value with HaCat cells (after irradiation) is “About 50%”. The “Free Radicals (%)” value in data set [3] (1.25 mM) is listed as 92%; in data set [3] (2.5 mM), 46%; in data set [3] (5 mM) it was 11%; in data set [3] (10 mM), 19%. The “Free Radicals (a.u.)” value in data set [3] (1.25 mM) was determined as 2311 ± 331 a.u; in data set [3] (2.5 mM), 1162 ± 225 a.u; in data set [3] (5 mM), 270 ± 88 a.u; in data set [3] (10 mM), 475 ± 212 a.u. Besides, in data set [3] (dose-dependent, maximum), the “reduction of visible light-induced free radicals in skin” value is “up to 89%”. Moreover, the “free radical reduction compared with Tocopherol” value in data set [3] (same conditions) was “superior to Tocopherol”. Also, the “suppression of singlet oxygen generation” value in data set [4] was “largest suppression”. Besides, the “solubility in PBS buffer and cell culture medium (in words)” value in data set [5] is reported as “especially difficult to dissolve”. Further, the stability of solution result in data set [5] (0.05 mM in PBS buffer) is on record as “not observed to be stable for long”. Also, in data set [5] (one hour after adding to PBS buffer or cell culture medium), the precipitation result is listed as “almost all Formula II(a)(1) precipitatde”.
